Target: Vascular endothelial growth factor receptor 2 (Homo sapiens, UniProt P35968)
Assay: Inhibition of VEGFR2 phosphorylation (unknown origin) by cell based assay

Chain of Vascular endothelial growth factor receptor 2 (P35968 whole entry): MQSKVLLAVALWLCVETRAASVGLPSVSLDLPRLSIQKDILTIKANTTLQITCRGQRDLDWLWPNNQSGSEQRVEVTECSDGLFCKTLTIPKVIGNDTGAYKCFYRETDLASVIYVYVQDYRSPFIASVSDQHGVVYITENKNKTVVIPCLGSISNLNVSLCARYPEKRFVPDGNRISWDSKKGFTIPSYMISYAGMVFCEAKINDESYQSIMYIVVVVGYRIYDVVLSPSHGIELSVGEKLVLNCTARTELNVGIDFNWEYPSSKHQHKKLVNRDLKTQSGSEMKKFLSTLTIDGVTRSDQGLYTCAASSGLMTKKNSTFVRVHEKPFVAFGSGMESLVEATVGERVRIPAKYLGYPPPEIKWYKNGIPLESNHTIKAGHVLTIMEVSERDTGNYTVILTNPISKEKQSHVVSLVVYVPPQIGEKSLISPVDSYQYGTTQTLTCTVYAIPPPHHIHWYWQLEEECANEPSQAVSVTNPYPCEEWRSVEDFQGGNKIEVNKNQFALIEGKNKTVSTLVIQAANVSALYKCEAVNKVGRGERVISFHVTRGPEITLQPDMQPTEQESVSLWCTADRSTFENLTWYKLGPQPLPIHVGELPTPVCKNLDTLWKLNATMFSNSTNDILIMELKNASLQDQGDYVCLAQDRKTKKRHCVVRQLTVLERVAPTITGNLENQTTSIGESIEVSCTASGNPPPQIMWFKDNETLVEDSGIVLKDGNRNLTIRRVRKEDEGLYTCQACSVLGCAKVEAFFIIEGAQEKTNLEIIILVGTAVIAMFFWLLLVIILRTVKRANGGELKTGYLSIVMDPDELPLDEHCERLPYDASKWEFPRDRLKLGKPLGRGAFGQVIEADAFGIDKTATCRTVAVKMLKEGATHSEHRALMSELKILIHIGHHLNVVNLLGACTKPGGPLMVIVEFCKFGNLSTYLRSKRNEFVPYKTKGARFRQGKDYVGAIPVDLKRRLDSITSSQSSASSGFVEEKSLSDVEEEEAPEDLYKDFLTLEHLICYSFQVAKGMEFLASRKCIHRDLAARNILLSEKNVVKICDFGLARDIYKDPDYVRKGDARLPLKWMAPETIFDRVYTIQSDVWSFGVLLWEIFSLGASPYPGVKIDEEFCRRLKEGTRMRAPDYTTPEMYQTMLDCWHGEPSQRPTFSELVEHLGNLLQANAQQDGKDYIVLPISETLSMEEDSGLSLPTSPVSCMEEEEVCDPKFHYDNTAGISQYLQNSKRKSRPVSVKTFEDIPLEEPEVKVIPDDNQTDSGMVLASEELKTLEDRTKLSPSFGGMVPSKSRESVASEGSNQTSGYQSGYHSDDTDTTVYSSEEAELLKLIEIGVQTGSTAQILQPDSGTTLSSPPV

- IC50: > 40 µM
SMILES: Nc1nccn2c1c(-c1cc3cccc(Cl)c3[nH]1)nc2[C@H]1CC[C@H](C(=O)O)CC1
